Biological target: T1, PAK7 (KIAA1264) (Homo sapiens, UniProt Q9P286)
T1 construct: purchased Thermo Fisher Scientific (Life Technologies) SelectScreen
Assay: SelectScreen Z'LYTE
Format: biochemical
In short: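 NU5455 was profiled across the SelectScreen Broad panel of kinase activity and binding assays. Z'LYTE reactions such as CSF1R ran at apparent Km ATP, while the Adapta CAMK1 assay used ATP listed as 10. Values are given as percent.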

T1 sequence (Q9P286 whole entry): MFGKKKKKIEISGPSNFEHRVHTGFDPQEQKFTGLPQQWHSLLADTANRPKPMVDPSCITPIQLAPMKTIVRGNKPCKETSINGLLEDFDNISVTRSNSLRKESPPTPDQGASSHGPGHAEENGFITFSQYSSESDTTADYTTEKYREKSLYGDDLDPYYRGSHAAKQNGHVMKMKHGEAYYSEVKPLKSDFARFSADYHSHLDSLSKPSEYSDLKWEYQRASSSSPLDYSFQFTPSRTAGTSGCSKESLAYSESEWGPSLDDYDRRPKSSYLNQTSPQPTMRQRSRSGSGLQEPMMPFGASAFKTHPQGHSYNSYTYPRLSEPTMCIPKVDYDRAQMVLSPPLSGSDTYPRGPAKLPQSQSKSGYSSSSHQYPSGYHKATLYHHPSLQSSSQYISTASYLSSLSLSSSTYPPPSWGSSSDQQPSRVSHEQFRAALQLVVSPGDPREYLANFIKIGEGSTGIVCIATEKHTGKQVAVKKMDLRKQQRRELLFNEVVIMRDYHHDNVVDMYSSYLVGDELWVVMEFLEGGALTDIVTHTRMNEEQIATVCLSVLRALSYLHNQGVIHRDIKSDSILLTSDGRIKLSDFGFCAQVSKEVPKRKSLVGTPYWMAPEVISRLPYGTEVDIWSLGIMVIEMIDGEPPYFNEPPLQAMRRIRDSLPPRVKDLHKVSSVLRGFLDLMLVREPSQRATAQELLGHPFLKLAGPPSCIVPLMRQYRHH

CN(C(=O)CN1CCOCC1)c1ccc2sc3c(-c4cccc5c(=O)cc(N6CC7CCC(C6)O7)oc45)cccc3c2c1 [NU5455]
inhibition at 1 µM: 5.7%
